Laboratory results taken from ChEMBL document CHEMBL4265934 (Eur J Med Chem, 2018).
Calls of active or inactive are those of the source. No cut-off for these calls is given here.

Assays:
[1] = molecular target: T1, Phosphatidylinositol 4,5-bisphosphate 3-kinase catalytic subunit delta isoform (Homo sapiens) (UniProt O00329); test: Inhibition of PI3Kdelta in human basophils assessed as reduction in IgE-induced degranulation by measuring CD203c expression level at 100 uM by fluorescence assay relative to control; parameters: scale not given: the % may be the effect or the level left
T1 sequence (whole entry): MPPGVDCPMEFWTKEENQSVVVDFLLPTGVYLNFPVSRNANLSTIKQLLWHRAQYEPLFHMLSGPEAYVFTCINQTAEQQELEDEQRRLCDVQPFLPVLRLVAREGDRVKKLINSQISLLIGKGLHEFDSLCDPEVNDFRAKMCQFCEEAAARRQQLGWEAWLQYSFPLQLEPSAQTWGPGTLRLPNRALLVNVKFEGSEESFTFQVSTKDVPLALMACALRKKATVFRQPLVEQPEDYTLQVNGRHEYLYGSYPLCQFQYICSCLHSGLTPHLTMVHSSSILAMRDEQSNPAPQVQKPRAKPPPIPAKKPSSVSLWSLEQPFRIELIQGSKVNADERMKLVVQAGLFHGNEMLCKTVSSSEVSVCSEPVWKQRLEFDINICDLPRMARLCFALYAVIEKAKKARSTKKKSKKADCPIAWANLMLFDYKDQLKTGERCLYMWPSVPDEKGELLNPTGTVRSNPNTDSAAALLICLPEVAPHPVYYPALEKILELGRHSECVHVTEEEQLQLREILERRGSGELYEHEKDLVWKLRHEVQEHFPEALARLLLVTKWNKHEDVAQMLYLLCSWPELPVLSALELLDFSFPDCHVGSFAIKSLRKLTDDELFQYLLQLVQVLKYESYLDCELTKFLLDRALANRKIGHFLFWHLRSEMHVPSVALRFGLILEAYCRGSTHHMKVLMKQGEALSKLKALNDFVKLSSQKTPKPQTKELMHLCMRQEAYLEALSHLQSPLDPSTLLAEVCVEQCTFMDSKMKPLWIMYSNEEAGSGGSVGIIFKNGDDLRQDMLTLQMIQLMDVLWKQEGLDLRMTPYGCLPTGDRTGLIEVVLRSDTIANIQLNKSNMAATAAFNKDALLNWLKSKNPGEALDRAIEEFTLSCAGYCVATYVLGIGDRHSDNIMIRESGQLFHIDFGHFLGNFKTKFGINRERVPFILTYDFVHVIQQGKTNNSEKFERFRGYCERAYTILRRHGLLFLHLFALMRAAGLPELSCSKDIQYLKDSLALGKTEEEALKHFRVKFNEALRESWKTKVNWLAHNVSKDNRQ

[2] = molecular target: T1, Phosphatidylinositol 4,5-bisphosphate 3-kinase catalytic subunit delta isoform (Homo sapiens); test: Inhibition of PI3Kdelta in human basophils assessed as reduction in IgE-induced degranulation by measuring CD63 expression level at 100 uM by flow cast assay relative to control; parameters: scale not given: the % may be the effect or the level left
Mus musculus [3] = test: Anti-asthmatic activity in mouse model of ovalbumin-induced asthma assessed as decrease in methacholine-induced lung resistance at 10 mg/kg, ip daily by plethysmographic method; format: functional, organism-based
Mus musculus [4] = test: Protection against DNFB-induced atopic dermatitis in mouse assessed as reduction in ear thickness administered topically measured up to 4 days post DNFB treatment; format: functional, organism-based
Mus musculus [5] = test: Anti-inflammatory activity in mouse model of ovalbumin-induced asthma assessed as decrease in macrophage infilteration at 90 mg/kg aerosolized daily; format: functional, organism-based
Mus musculus [6] = test: Anti-asthmatic activity in mouse model of ovalbumin-induced asthma assessed as decrease in methacholine-induced lung resistance at 90 mg/kg, ip daily by plethysmographic method; format: functional, organism-based
Mus musculus [7] = test: Anti-inflammatory activity in mouse model of ovalbumin-induced asthma assessed as decrease in total leukocytic infilterate in BAL administered ip daily; format: functional, organism-based
[8] = molecular target: Phosphatidylinositol 4,5-bisphosphate 3-kinase catalytic subunit gamma isoform (Homo sapiens, UniProt P48736); test: Inhibition of PI3KCgamma (unknown origin)
Mus musculus [9] = test: Anti-asthmatic activity in mouse model of ovalbumin-induced asthma assessed as decrease in methacholine-induced lung resistance at 90 mg/kg aerosolized daily by plethysmographic method; format: functional, organism-based
[10] = molecular target: T1, Phosphatidylinositol 4,5-bisphosphate 3-kinase catalytic subunit delta isoform (Homo sapiens); test: Inhibition of PI3Kdelta in human basophils assessed as reduction in IgE-induced degranulation by measuring decrease in CD63 expression level by flow cast assay
[11] = molecular target: PI3-kinase p110-alpha/p85-alpha (Homo sapiens, UniProt P42336); test: Inhibition of PI3KCalpha/PIK3R1 (unknown origin); format: protein-complex assay
Mus musculus [12] = test: Anti-inflammatory activity in mouse model of ovalbumin-induced asthma assessed as decrease in total leukocytic infilterate in lungs administered ip daily; format: functional, organism-based
Mus musculus [13] = test: Protection against DNFB-induced atopic dermatitis in mouse assessed as reduction in ear thickness at 90 mg/kg, ip measured up to 3 days post DNFB treatment; format: functional, organism-based
Mus musculus [14] = test: Toxicity in mouse up to 90 mg/kg, ip or iv administered 3 to 5 times/week up to 4 weeks; format: organism-based; conditions: in vivo, 672 h
[15] = molecular target: T1, Phosphatidylinositol 4,5-bisphosphate 3-kinase catalytic subunit delta isoform (Homo sapiens); test: Inhibition of PI3Kdelta in human basophils assessed as reduction in IgE-induced degranulation by decrease in measuring CD203c expression level by fluorescence assay
Mus musculus [16] = test: Anti-inflammatory activity in mouse model of ovalbumin-induced asthma assessed as decrease in total leukocytic infilterate in BAL at 90 mg/kg aerosolized daily; format: functional, organism-based
PI3K p110 beta/p85 alpha = PI3K p110 beta/p85 alpha (Homo sapiens, UniProt P42338); test: Inhibition of PI3KCbeta/PIK3R1 (unknown origin); format: protein-complex assay
Mus musculus [17] = test: Anti-inflammatory activity in mouse model of ovalbumin-induced asthma assessed as decrease in eosinophilic infilteration administered ip daily; format: functional, organism-based
[18] = molecular target: PI3-kinase p110-delta/p85-alpha (Homo sapiens, UniProt O00329); test: Inhibition of PI3KCdelta/PIK3R1 (unknown origin); format: protein-complex assay
Mus musculus [19] = test: Anti-inflammatory activity in mouse model of ovalbumin-induced asthma assessed as decrease in eosinophilic infilteration at 90 mg/kg aerosolized daily; format: functional, organism-based
Mus musculus [20] = test: Anti-inflammatory activity in mouse model of ovalbumin-induced asthma assessed as decrease in neutrophilic infilteration at 90 mg/kg aerosolized daily; format: functional, organism-based
Mus musculus [21] = test: Anti-asthmatic activity in mouse model of ovalbumin-induced asthma assessed as decrease in methacholine-induced lung resistance at 10 mg/kg aerosolized daily by plethysmographic method; format: functional, organism-based
Mus musculus [22] = test: Anti-inflammatory activity in mouse model of ovalbumin-induced asthma assessed as decrease in total leukocytic infilterate in BAL at 10 mg/kg aerosolized daily; format: functional, organism-based

Chain of PI3K p110 beta/p85 alpha (P27986 whole entry): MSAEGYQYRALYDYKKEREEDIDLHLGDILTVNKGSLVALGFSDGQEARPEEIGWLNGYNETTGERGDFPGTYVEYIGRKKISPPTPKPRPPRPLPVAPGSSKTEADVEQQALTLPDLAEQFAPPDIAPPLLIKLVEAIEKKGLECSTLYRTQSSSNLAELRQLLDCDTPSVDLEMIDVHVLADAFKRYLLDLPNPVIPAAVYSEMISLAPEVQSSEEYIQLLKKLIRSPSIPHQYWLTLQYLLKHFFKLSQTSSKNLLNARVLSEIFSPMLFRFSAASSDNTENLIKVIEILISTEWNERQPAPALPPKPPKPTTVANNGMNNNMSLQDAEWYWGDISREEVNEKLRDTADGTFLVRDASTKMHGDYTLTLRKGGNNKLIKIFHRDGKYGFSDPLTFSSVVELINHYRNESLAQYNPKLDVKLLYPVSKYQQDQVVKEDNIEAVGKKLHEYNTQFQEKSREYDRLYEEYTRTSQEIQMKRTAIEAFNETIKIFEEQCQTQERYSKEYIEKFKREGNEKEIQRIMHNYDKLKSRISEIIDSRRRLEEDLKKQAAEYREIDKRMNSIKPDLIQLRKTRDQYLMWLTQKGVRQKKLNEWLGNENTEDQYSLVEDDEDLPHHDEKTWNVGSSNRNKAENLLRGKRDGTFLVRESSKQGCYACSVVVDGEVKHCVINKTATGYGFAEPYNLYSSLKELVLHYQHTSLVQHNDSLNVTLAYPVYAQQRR
Chain of PI3K p110 beta/p85 alpha (P42338 whole entry): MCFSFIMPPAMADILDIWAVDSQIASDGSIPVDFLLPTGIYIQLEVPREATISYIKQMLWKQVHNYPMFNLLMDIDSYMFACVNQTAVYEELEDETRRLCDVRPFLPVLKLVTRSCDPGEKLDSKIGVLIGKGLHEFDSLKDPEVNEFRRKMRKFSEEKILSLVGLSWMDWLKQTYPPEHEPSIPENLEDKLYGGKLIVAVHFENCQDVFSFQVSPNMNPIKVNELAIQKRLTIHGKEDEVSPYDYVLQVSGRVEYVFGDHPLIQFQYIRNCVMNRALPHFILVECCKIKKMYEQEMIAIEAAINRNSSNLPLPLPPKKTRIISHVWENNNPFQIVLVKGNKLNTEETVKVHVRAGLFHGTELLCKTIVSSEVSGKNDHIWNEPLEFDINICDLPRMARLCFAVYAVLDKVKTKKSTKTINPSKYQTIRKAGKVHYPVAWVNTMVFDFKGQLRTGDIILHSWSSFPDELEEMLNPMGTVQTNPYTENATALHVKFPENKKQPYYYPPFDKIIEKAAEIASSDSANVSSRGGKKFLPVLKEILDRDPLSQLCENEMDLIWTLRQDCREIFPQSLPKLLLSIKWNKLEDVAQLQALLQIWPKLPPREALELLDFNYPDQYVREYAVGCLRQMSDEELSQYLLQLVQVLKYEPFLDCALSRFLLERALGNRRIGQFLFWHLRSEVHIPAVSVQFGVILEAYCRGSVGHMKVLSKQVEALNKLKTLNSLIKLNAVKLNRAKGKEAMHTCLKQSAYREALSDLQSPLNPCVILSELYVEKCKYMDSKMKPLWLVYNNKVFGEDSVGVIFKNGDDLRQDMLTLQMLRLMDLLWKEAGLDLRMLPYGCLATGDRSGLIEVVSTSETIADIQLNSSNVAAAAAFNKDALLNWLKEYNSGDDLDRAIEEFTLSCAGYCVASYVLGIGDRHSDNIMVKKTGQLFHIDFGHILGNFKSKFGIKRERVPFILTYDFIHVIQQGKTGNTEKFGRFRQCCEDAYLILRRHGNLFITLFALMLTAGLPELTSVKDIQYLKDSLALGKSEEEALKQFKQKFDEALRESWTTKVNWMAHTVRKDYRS
Chain of PI3-kinase p110-delta/p85-alpha (P27986 whole entry, one chain of several): as the sequence (P27986 whole entry) above
Chain of PI3-kinase p110-alpha/p85-alpha (P27986 whole entry): as above
Chain of PI3-kinase p110-alpha/p85-alpha (P42336 whole entry): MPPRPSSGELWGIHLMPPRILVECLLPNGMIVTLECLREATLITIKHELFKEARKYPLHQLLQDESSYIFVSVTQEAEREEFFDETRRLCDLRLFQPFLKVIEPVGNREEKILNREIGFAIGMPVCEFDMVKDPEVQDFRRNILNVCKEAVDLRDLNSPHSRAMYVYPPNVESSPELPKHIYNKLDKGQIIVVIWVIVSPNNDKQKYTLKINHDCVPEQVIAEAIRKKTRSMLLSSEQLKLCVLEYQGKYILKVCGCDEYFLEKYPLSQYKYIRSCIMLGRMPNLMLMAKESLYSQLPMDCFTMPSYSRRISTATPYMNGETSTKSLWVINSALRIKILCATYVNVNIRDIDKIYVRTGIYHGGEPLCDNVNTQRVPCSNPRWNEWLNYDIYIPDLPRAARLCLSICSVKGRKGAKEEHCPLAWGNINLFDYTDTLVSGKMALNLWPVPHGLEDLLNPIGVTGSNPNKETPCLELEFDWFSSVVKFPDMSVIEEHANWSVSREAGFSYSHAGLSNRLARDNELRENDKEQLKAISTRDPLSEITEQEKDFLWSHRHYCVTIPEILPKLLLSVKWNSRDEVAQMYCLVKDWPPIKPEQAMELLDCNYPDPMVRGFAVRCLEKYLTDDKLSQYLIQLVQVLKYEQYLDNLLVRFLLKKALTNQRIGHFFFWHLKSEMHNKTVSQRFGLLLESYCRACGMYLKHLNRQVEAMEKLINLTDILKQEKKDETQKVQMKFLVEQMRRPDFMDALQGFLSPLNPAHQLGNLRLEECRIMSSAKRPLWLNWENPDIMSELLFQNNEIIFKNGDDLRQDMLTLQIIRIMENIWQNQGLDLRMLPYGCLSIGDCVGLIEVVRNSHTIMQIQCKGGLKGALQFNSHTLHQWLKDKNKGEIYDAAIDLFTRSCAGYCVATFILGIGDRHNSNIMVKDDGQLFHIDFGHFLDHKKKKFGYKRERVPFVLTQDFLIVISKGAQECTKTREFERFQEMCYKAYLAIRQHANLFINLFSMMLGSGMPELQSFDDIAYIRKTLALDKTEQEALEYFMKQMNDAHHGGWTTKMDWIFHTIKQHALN
Chain of Phosphatidylinositol 4,5-bisphosphate 3-kinase catalytic subunit gamma isoform (P48736 whole entry, canonical isoform): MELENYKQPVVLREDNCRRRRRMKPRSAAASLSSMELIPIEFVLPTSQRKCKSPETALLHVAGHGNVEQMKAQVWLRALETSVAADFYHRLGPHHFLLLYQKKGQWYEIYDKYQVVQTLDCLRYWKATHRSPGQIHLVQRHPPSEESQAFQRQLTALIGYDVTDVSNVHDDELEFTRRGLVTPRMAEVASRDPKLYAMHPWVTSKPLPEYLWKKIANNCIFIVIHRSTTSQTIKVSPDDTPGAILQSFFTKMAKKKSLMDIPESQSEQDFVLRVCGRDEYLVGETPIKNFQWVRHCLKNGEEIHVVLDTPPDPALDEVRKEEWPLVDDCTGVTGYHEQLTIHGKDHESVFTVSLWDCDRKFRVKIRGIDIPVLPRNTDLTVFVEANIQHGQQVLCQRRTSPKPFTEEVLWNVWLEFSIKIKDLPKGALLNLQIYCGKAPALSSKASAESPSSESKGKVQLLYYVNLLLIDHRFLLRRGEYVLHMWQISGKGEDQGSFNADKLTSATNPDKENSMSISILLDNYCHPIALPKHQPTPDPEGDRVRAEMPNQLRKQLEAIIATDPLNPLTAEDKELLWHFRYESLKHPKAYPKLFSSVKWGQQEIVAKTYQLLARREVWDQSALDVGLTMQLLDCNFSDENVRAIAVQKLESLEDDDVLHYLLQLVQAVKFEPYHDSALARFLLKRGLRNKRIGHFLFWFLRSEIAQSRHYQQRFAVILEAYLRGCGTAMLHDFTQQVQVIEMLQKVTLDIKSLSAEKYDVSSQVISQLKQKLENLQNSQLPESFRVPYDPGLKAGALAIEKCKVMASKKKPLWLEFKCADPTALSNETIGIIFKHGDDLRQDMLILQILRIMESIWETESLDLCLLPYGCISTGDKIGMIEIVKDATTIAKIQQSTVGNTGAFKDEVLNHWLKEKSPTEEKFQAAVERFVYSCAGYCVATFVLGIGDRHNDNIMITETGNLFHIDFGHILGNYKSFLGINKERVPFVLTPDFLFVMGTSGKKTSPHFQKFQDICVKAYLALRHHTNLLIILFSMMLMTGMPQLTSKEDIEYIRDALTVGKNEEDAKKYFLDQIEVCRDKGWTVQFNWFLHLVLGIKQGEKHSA

Structure (SMILES) | Activity [1] [%] | Activity [2] [%] | further results
COc1cc(OC)c(/C=C/C(=O)c2c(OC)cc(N)cc2OC)c(OC)c1 | 75 | 63 | –
COc1ccccc1/C=C/C(=O)c1cc(OC)c(OC)cc1OC | 65 | 55 | –
COc1cc(O)c(C(=O)/C=C/c2c(OC)cccc2OC)c(OC)c1 | 85 | 81 | –
O=C(O)c1cc(=O)c2c(OCC(O)COc3cccc4oc(C(=O)O)cc(=O)c34)cccc2o1 | – | – | Activity (Mus musculus [3]): inactive
COc1cc(OC)c(/C=C/C(=O)c2ccc(OC)c(OC)c2)c(OC)c1 | 95 | 91 | –
CCC(=O)OCC(=O)[C@@]1(OC(=O)CC)[C@@H](C)C[C@H]2[C@@H]3CCC4=CC(=O)C=C[C@]4(C)[C@@]3(F)[C@@H](O)C[C@@]21C | – | – | Activity (Mus musculus [4]): Active
COc1cccc(/C=C/C(=O)c2c(OC)cccc2OC)c1 | 82 | 100 | –
COc1cc(OC)c(C(=O)/C=C/c2ccccc2OC)c(OC)c1 | 65 | 48 | –
COc1cccc(OC)c1/C=C/C(=O)c1c(OC)cccc1OC | 96 | 94 | –
COc1cc(OC)c(C(=O)/C=C/c2cc(OC)c(OC)cc2OC)c(OC)c1 | 51 | 53 | –
COc1cc(OC)c(/C=C/C(=O)c2c(OC)cc(OC)cc2OC)c(OC)c1 | 68 | 67 | –
COc1cc(OC)c(/C=C/C(=O)c2c(OC)cccc2OC)c(OC)c1 | 81 | 78 | –
COc1cc(OC)c(/C=C/C(=O)c2c(OC)cc(OC)c(C3CCN(C)CC3)c2O)c(OC)c1 | – | – | Activity (Mus musculus [5]): inactive; Activity (Mus musculus [6]): Active; Activity (Mus musculus [7]): Dose-dependent effect; IC50 [8]: 10 µM; Activity (Mus musculus [9]): Active; inhibition [10]: Dose-dependent effect; IC50 [11]: > 10 µM; Activity (Mus musculus [12]): Dose-dependent effect; Activity (Mus musculus [13]): Active; Activity (Mus musculus [14]): Non-Toxic; inhibition [15]: Dose-dependent effect; Activity (Mus musculus [16]): inactive; IC50 (PI3K p110 beta/p85 alpha): > 10 µM; Activity (Mus musculus [17]): Dose-dependent effect; IC50 [18]: 7.2 µM; Activity (Mus musculus [19]): inactive; Activity (Mus musculus [20]): inactive
COc1cccc(OC)c1C(=O)/C=C/c1ccc(C(F)(F)F)cc1 | 81 | 64 | –
COc1cc(OC)c(OC)cc1/C=C/C(=O)c1cc(OC)c(OC)cc1OC | 70 | 66 | –
COc1ccc(/C=C/C(=O)c2cc(OC)c(OC)cc2OC)cc1O | 62 | 49 | –
COc1cccc(OC)c1/C=C/C(=O)c1c(OC)cc(OC)c(C2CCN(C)CC2)c1O | 41 | 4 | –
COc1cc(OC)c(C2CCN(C)CC2)c(O)c1C(=O)/C=C/c1c(Cl)cccc1Cl | 24 | 6 | –
C[C@@H]1C[C@H]2[C@@H]3CCC4=CC(=O)C=C[C@]4(C)[C@@]3(F)[C@@H](O)C[C@]2(C)[C@@]1(O)C(=O)CO | – | – | Activity (Mus musculus [21]): Active; Activity (Mus musculus [22]): Active
COc1ccc(C(=O)/C=C/c2cc(OC)c(OC)c(OC)c2)c(O)c1 | 93 | 92 | –
COc1ccc(C(=O)/C=C/c2c(OC)cc(OC)cc2OC)c(O)c1 | 91 | 95 | –
COc1ccc(C(=O)/C=C/c2c(OC)cc(OC)cc2OC)c(OC)c1 | 86 | 76 | –
COc1cc(OC)c(C(=O)/C=C/c2ccc(OC)c(O)c2)c(OC)c1 | 54 | 40 | –
